Target: GLP-1 Receptor (Homo sapiens, UniProt P43220)
Assay: GLP-1R agonist cAMP stimulation assay (HEK293/GLP1R/CRE-Luc cells, HTRF cAMP)
Format: cell-based
Conditions: 30 min, 37° C.
Method: Activation of GLP-1 receptor is known to stimulate cyclic AMP (cAMP) production in cells which indicates primary coupling to the Gαs subunit of the G protein heterotrimeric complex.
To optimize functional activity directed toward Gαs coupling, a HEK293/CRE-Luc cell line developed by HDB stably expressing the GLP-1 Receptor was used. […] 1×10^5 cells/mL HEK293/GLP1R/CRE-LUC(HD Biosciences) cell suspensions prepared with assay buffer[DPBS containing 0.5 mM IBMX (Sigma, Cat #I5879) and 0.1% BSA (GENVIEW, Cat #FA016-100g)], 10 uL cell suspensions were added to each well of previous generated assay plate which already contains 50 nl compound at 200×concentration using ThermoFisher Multidrop Combi (1000 cells/well). Seal the plate and incubate at 37° C. with 5% CO2 for 30 min.
After incubation the cAMP assay signal was generated using cAMP dynamic 2 Kit (Cisbio). 5 μL cAMP-d2 working solution was added to each well, followed with 5 μL Anti-cAMP antibody-cryptate working solution added to each well using ThermoFisher Multidrop Combi. Incubate at room temperature for 1 hour protected from light.

Sequence of GLP-1 Receptor (P43220 24-463): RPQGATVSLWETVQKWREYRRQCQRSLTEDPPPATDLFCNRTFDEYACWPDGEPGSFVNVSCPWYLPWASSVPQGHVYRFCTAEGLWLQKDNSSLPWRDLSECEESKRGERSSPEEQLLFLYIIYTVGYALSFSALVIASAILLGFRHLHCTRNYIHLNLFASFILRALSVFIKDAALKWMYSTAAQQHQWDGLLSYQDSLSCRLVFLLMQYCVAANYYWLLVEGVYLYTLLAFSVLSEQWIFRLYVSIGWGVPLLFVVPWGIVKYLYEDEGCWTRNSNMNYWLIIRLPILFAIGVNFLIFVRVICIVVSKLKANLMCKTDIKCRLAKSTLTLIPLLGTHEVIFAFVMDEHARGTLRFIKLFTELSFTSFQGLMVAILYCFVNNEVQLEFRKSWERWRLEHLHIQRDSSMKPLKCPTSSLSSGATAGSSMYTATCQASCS

Question: `O=C(O)c1ccc2nc(CN3CCC(Oc4cccc(Cc5ccc(Cl)s5)n4)CC3)n(C[C@@H]3CCO3)c2n1` [Compound 147a, 2-{[4-({6-[(5-chlorothiophen-2-yl)methyl]pyridin-2-yl}oxy)piperidin-1-yl]methyl}-3-{[(2S)-oxetan-2-yl]methyl}-3H-imidazo[4,5-b]pyridine-5-carboxylic acid] was tested. Which “GLP1R cAMP Stimulation DR: pEC50” value did it give?
Answer: The value was 9.7.

Same assay, conditions: 30 min, 37° C.; read-out: GLP1R cAMP Stimulation DR: EC50

Question: `O=C(O)c1ccc2nc(CN3CCC(Oc4cccc(Cc5ccc(Cl)s5)n4)CC3)n(C[C@@H]3CCO3)c2n1` [Compound 147a, 2-{[4-({6-[(5-chlorothiophen-2-yl)methyl]pyridin-2-yl}oxy)piperidin-1-yl]methyl}-3-{[(2S)-oxetan-2-yl]methyl}-3H-imidazo[4,5-b]pyridine-5-carboxylic acid] was tested. Which EC50 did it give?
Answer: The EC50 was 0.2 nM.

Same assay, conditions: HEK293/CRE-Luc cells stably expressing GLP-1 Receptor; 30 min, 37° C.

Question: With `O=C(O)c1ccc2nc(CN3CCC(Oc4cccc(CN5Cc6ccccc6C5=O)n4)CC3)n(C[C@@H]3CCO3)c2n1` [Compound 148a, 3-{[(2S)-oxetan-2-yl]methyl}-2-{[4-({6-[(1-oxo-2,3-dihydro-1H-isoindol-2-yl)methyl]pyridin-2-yl}oxy)piperidin-1-yl]methyl}-3H-imidazo[4,5-b]pyridine-5-carboxylic acid] as the molecule, how does the “GLP1R cAMP Stimulation DR: pEC50” value read?
Answer: The value was 8.4.

Question: How did the “GLP1R cAMP Stimulation DR: pEC50” value turn out when `O=C(O)c1ccc2nc(CN3CCC(Oc4cccc(Cn5ccc(Cl)cc5=O)n4)CC3)n(C[C@@H]3CCO3)c2n1` [Compound 149a, 2-{[4-({6-[(4-chloro-2-oxo-1,2-dihydropyridin-1-yl)methyl]pyridin-2-yl}oxy)piperidin-1-yl]methyl}-3-{[(2S)-oxetan-2-yl]methyl}-3H-imidazo[4,5-b]pyridine-5-carboxylic acid] was run?
Answer: The value was 8.3.

Question: `O=C(O)c1ccc2nc(CN3CCC(Oc4ccc(F)c(Cc5ccc(Cl)cc5F)n4)CC3)n(C[C@@H]3CCO3)c2n1` [Compound 150a, (S)-2-((4-((6-(4-chloro-2-fluorobenzyl)-5-fluoropyridin-2-yl)oxy)piperidin-1-yl)methyl)-3-(oxetan-2-ylmethyl)-3H-imidazo[4,5-b]pyridine-5-carboxylic acid] was tested. Which “GLP1R cAMP Stimulation DR: pEC50” value did it give?
Answer: Its value is 7.2.

Question: For `O=C(O)c1ccc2nc(CN3CCC(Oc4nc(Cc5ccc(Cl)cc5F)ncc4F)CC3)n(C[C@@H]3CCO3)c2n1` [Compound 151a, (S)-2-((4-((2-(4-chloro-2-fluorobenzyl)-5-fluoropyrimidin-4-yl)oxy)piperidin-1-yl)methyl)-3-(oxetan-2-ylmethyl)-3H-imidazo[4,5-b]pyridine-5-carboxylic acid], which “GLP1R cAMP Stimulation DR: pEC50” value is on record?
Answer: The value was 10.1.

Question: For `O=C(O)c1ccc2nc(CN3CCC(Oc4ccnc(Cc5ccc(Cl)cc5)n4)CC3)n(C[C@@H]3CCO3)c2n1` [Compound 152a, 2-{[4-({2-[(4-chlorophenyl)methyl]pyrimidin-4-yl}oxy)piperidin-1-yl]methyl}-3-{[(2S)-oxetan-2-yl]methyl}-3H-imidazo[4,5-b]pyridine-5-carboxylic acid], which “GLP1R cAMP Stimulation DR: pEC50” value is on record?
Answer: Its value is 10.4.

Question: `Cc1cc(Cc2ccc(Cl)cc2)nc(OC2CCN(Cc3nc4ccc(C(=O)O)nc4n3C[C@@H]3CCO3)CC2)c1` [Compound 154a, 2-{[4-({6-[(4-chlorophenyl)methyl]-4-methylpyridin-2-yl}oxy)piperidin-1-yl]methyl}-3-{[(2S)-oxetan-2-yl]methyl}-3H-imidazo[4,5-b]pyridine-5-carboxylic acid] was tested. Which “GLP1R cAMP Stimulation DR: pEC50” value did it give?
Answer: Its value is 7.6.

Question: Which “GLP1R cAMP Stimulation DR: pEC50” value does the source give for `O=C(O)c1ccc2nc(CN3CCC(Oc4cc(Cl)cc(Cc5ccc(Cl)cc5)n4)CC3)n(C[C@@H]3CCO3)c2n1` [Compound 155a, 2-{[4-({4-chloro-6-[(4-chlorophenyl)methyl]pyridin-2-yl}oxy)piperidin-1-yl]methyl}-3-{[(2S)-oxetan-2-yl]methyl}-3H-imidazo[4,5-b]pyridine-5-carboxylic acid] here?
Answer: Its value is 8.4.

Question: How did the “GLP1R cAMP Stimulation DR: pEC50” value turn out when `O=C(O)c1ccc2nc(CN3CCC(Oc4cc(C(F)(F)F)cc(Cc5ccc(Cl)cc5)n4)CC3)n(C[C@@H]3CCO3)c2n1` [Compound 156a, 2-{[4-({6-[(4-chlorophenyl)methyl]-4-(trifluoromethyl)pyridin-2-yl}oxy)piperidin-1-yl]methyl}-3-{[(2S)-oxetan-2-yl]methyl}-3H-imidazo[4,5-b]pyridine-5-carboxylic acid] was run?
Answer: The value was 7.4.

Question: With `O=C(O)c1ccc2nc(CN3CCC(Oc4cccc(Cc5ccc(Cl)cc5)c4F)CC3)n(C[C@@H]3CCO3)c2n1` [Compound 157a, 2-[(4-{3-[(4-chlorophenyl)methyl]-2-fluorophenoxy}piperidin-1-yl)methyl]-3-{[(2S)-oxetan-2-yl]methyl}-3H-imidazo[4,5-b]pyridine-5-carboxylic acid] as the molecule, how does the “GLP1R cAMP Stimulation DR: pEC50” value read?
Answer: The value was 7.4.

Question: For `O=C(O)c1ccc2nc(CN3CCC(Oc4cccc(Cc5ccc(Cl)cc5)c4Cl)CC3)n(C[C@@H]3CCO3)c2n1` [Compound 158a, 2-[(4-{2-chloro-3-[(4-chlorophenyl)methyl]phenoxy}piperidin-1-yl)methyl]-3-{[(2S)-oxetan-2-yl]methyl}-3H-imidazo[4,5-b]pyridine-5-carboxylic acid], which “GLP1R cAMP Stimulation DR: pEC50” value is on record?
Answer: The value was <6.0.

Question: `O=C(O)c1ccc2nc(CN3CCC(Oc4ccnc(Cc5ccc(Cl)cc5)c4)CC3)n(C[C@@H]3CCO3)c2n1` [Compound 159a, 2-{[4-({2-[(4-chlorophenyl)methyl]pyridin-4-yl}oxy)piperidin-1-yl]methyl}-3-{[(2S)-oxetan-2-yl]methyl}-3H-imidazo[4,5-b]pyridine-5-carboxylic acid] was tested. Which “GLP1R cAMP Stimulation DR: pEC50” value did it give?
Answer: Its value is 8.6.

Question: With `O=C(O)c1ccc2nc(CN3CCC(Oc4ccnc(Cc5ccc(Cl)cc5F)n4)CC3)n(C[C@@H]3CCO3)c2c1` [Compound 160a, 2-{[4-({2-[(4-chloro-2-fluorophenyl)methyl]pyrimidin-4-yl}oxy)piperidin-1-yl]methyl}-1-{[(2S)-oxetan-2-yl]methyl}-1H-1,3-benzodiazole-6-carboxylic acid] as the molecule, how does the “GLP1R cAMP Stimulation DR: pEC50” value read?
Answer: The value was 9.9.

Question: For `O=C(O)c1cnc2nc(CN3CCC(Oc4ccnc(Cc5ccc(Cl)cc5F)n4)CC3)n(C[C@@H]3CCO3)c2c1` [Compound 161a, 2-{[4-({2-[(4-chloro-2-fluorophenyl)methyl]pyrimidin-4-yl}oxy)piperidin-1-yl]methyl}-1-{[(2S)-oxetan-2-yl]methyl}-1H-imidazo[4,5-b]pyridine-6-carboxylic acid], which “GLP1R cAMP Stimulation DR: pEC50” value is on record?
Answer: Its value is 9.7.

Question: With `N#CC1(Cn2c(CN3CCC(Oc4ccnc(Cc5ccc(Cl)cc5F)n4)CC3)nc3ccc(C(=O)O)cc32)CC1` [Compound 162, 2-{[4-({2-[(4-chloro-2-fluorophenyl)methyl]pyrimidin-4-yl}oxy)piperidin-1-yl]methyl}-1-[(1-cyanocyclopropyl)methyl]-1H-1,3-benzodiazole-6-carboxylic acid] as the molecule, how does the “GLP1R cAMP Stimulation DR: pEC50” value read?
Answer: Its value is 10.1.

Question: `O=C(O)c1ccc2nc(CN3CCC(Oc4ccnc(Cc5ccc(F)cc5F)n4)CC3)n(C[C@@H]3CCO3)c2n1` [Compound 165a, 2-{[4-({2-[(2,4-difluorophenyl)methyl]pyrimidin-4-yl}oxy)piperidin-1-yl]methyl}-3-{[(2S)-oxetan-2-yl]methyl}-3H-imidazo[4,5-b]pyridine-5-carboxylic acid] was tested. Which “GLP1R cAMP Stimulation DR: pEC50” value did it give?
Answer: Its value is 9.4.

Question: For `O=C(O)c1ccc2nc(CN3CCC(Oc4ccnc(Cc5ccc(Cl)c(Cl)c5)n4)CC3)n(C[C@@H]3CCO3)c2n1` [Compound 167a, 2-{[4-({2-[(3,4-dichlorophenyl)methyl]pyrimidin-4-yl}oxy)piperidin-1-yl]methyl}-3-{[(2S)-oxetan-2-yl]methyl}-3H-imidazo[4,5-b]pyridine-5-carboxylic acid], which “GLP1R cAMP Stimulation DR: pEC50” value is on record?
Answer: Its value is 9.9.

Same assay, conditions: HEK293/CRE-Luc cells stably expressing GLP-1 Receptor; 30 min, 37° C.; read-out: GLP1R cAMP Stimulation DR: EC50

Question: Which EC50 does the source give for `O=C(O)c1ccc2nc(CN3CCC(Oc4ccnc(Cc5ccc(F)cc5F)n4)CC3)n(C[C@@H]3CCO3)c2n1` [Compound 165a, 2-{[4-({2-[(2,4-difluorophenyl)methyl]pyrimidin-4-yl}oxy)piperidin-1-yl]methyl}-3-{[(2S)-oxetan-2-yl]methyl}-3H-imidazo[4,5-b]pyridine-5-carboxylic acid] here?
Answer: Its EC50 is 0.4 nM.
